Laboratory results as given in patent US20110182922A1, “PEPTIDES OF IL1 BETA AND TNF ALPHA AND METHOD OF TREATMENT USING SAME” (VAX CONSULTING, priority 2004, published 2011).
Bridge positions count the residues as written; N and C are the ends. Ends that are not written are not given here.

Experiments:
Assay type in all cases: in vivo
[1] = system: TNFα-dependent septic shock in mice; assay: model of endotoxinic shock (LPS with Galactosamine) after preimmunization; conditions: Balb/c mice preimmunized with KLH-coupled peptide, shock on day D50 by LPS with Galactosamine; control KLH alone; p=0.008
Procedure: 4 murine TNFα peptides coupled to the KLH carrier protein, including the cyclized peptide CVSRFAISYQEKVNLLSC (SEQ ID NO:15) called TNFα-6, were tested in a model of endotoxinic shock. For this purpose, Balb/c mice were preimmunized against these peptides on days D0, […], and D40. On day D50, the mice were subjected to shock, i.e. they were injected with LPS with Galactosamine. A control was carried out on mice immunized against KLH alone.
It is noted that all the mice died after two days, except for the group immunized against the TNFα-6 peptide where the mice were protected. The protection conferred by the immunization was very significant (p=0.008).

native mTNFα cytokine = assay: ELISA test of serum antibodies against native mTNFα after immunization; set-up: unit not given here; conditions: ELISA on serum day D50; groups of 4 mice, 20 ug peptide coupled to KLH, boosters D20 and D40
Procedure: (§1) 6 groups of 4 mice were immunized against 20 ug of the murine IL1β peptides IRQLHYRLRDEQQKSL (group 1) (SEQ ID NO:11), SFVQGEPSNDKIP (group 2) (SEQ ID NO:12), QYPKKKMEKRFVFNKIEV (group 3) (SEQ ID NO:13), IIDFTMESVSS (group 4) (SEQ ID NO:14), and 20 ug of the murine TNFα peptide KYLDFAESGQVY (group 5) (SEQ ID NO:6) all coupled to KLH. Group 6 corresponds to mice immunized by KLH alone. A booster was administered on days D20 and D40. On day D50 the mice were sacrificed and the antibodies directed against the native mTNFα cytokine and the native mIL1β cytokine in the serums were measured by an ELISA test.

native mIL1β cytokine = assay: ELISA test of serum antibodies against native mIL1β after immunization; set-up: unit not given here; conditions: ELISA on serum day D50; groups of 4 mice, 20 ug peptide coupled to KLH, boosters D20 and D40
Procedure: as §1

[2] = system: collagen arthritis induced in mice; assay: model of collagen arthritis after preimmunization; conditions: DBA1 mice preimmunized with KLH-coupled peptide, collagen in Freund's adjuvant D80 and D95, scored D100-D160; control KLH alone; p=0.0003, ANOVA test
Procedure: 3 murine IL1β peptides coupled to the KLH protein, including the cyclized IL1-6 peptide of sequence YCYISTSQAEHKPVFLGC (SEQ ID NO:16), were tested in a model of collagen arthritis. For this purpose, DBA1 mice were preimmunized against these peptides on days D0, D20, D40, […]. On day D80 the mice were immunized against collagen in Freund's adjuvant, and similarly on day D95. The development of arthritis was monitored between day D100 and day D160: twice weekly, the mice were examined and a score was attributed to them as a function of the state of inflammation of their joints (0=no inflammation, 1=slight inflammation, 2=average inflammation, 3=strong inflammation).

Sequence | survival of mice subjected to septic shock (protection) [1] | Anti-TNFα response Average (native mTNFα cytokine) | Anti-IL1β response Average (native mIL1β cytokine) | clinical score of joint inflammation (protection with respect to control) [2]
CVSRFAISYQEKVNLLSC (disulfide 1-18 (inferred)) [TNFα-6, cyclized murine TNFα peptide] | protected | – | – | –
IIDFTMESVSS [Group 4, murine IL1β peptide 142-152] | – | 0.12 | 0.8 | –
IRQLHYRLRDEQQKSL [Group 1, murine IL1β peptide 3-18] | – | 0.13 | 1.5 | –
KYLDFAESGQVY [Group 5, murine TNFα peptide 140-150] | – | 1.3 | 0.31 | –
QYPKKKMEKRFVFNKIEV [Group 3, murine IL1β peptide 89-106] | – | 0.18 | 1.6 | –
SFVQGEPSNDKIP [Group 2, murine IL1β peptide 45-57] | – | 0.15 | 1.9 | –
VSRFAISYQEKVNLLS [SEQ ID NO:1, peptide area 80-95 of the murine TNFα cytokine] | capable of blocking TNFα-dependent septic shock in mice | – | – | –
YCYISTSQAEHKPVFLGC (disulfide 2-18 (inferred); also: coupled to KLH carrier protein) [IL1β-6, cyclized murine IL1β peptide] | – | – | – | strong protection level
YISTSQAEHKPVFLG [SEQ ID NO:3, peptide area 121-135 of the murine IL1β cytokine] | – | – | – | capable of blocking collagen arthritis induced in mice
